Columns and labels:
[1] = target: Interleukin-8 receptors, CXCR1/CXCR2 (Homo sapiens) (UniProt P25025+P25024); assay: Inhibition of CXCR1/2 in human polymorphonucleate cells assessed as inhibition of CXCL8-induced chemotaxis at 10^-8 M incubated for 15 mins prior to CXCL8-induction measured after 45 mins
[2] = target: T1, C-X-C chemokine receptor type 2 (Homo sapiens) (UniProt P25025); assay: Inhibition of CXCR2 in human polymorphonucleate cells assessed as inhibition of CXCL1-induced chemotaxis at 10^-8 M incubated for 15 mins prior to CXCL1-induction measured after 45 mins
T1 sequence (whole entry): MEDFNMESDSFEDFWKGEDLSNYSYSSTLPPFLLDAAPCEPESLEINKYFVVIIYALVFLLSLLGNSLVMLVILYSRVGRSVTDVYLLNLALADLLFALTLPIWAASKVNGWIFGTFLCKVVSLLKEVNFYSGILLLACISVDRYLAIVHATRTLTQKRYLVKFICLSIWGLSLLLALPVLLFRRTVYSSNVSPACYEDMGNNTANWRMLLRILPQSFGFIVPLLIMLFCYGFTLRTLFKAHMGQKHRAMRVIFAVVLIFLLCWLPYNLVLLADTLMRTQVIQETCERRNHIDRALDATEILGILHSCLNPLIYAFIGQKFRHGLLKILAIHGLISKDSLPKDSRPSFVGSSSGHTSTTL

[3] = Metabolic stability in rat liver microsomes assessed as compound remaining at 1 uM preincubated for 10 mins measured after 30 mins; assay type: ADME, Microsome; details: read-out: Stability
[4] = Metabolic stability in rat plasma assessed as compound remaining at 1 uM after 1 hr; assay type: ADME, cell-free; details: read-out: Stability
[5] = Half life in iv dosed rat plasma; assay type: ADME, organism-based
[6] = Chemical stability of the compound assessed as compound remaining at pH 7.4 after 2 hrs; assay type: physicochemical; details: buffer, read-out: Stability
CYP2D6 = CYP2D6 (Homo sapiens, UniProt P10635); assay: Inhibition of CYP2D6 using AMMC as substrate at 10 uM; assay type: ADME; details: probe AMMC
CYP1A2 = target: T2, CYP1A2 (Homo sapiens, UniProt P05177); assay: Inhibition of CYP1A2 using CEC as substrate at 10 uM; assay type: ADME; details: probe CEC
T2 sequence (P05177 whole entry): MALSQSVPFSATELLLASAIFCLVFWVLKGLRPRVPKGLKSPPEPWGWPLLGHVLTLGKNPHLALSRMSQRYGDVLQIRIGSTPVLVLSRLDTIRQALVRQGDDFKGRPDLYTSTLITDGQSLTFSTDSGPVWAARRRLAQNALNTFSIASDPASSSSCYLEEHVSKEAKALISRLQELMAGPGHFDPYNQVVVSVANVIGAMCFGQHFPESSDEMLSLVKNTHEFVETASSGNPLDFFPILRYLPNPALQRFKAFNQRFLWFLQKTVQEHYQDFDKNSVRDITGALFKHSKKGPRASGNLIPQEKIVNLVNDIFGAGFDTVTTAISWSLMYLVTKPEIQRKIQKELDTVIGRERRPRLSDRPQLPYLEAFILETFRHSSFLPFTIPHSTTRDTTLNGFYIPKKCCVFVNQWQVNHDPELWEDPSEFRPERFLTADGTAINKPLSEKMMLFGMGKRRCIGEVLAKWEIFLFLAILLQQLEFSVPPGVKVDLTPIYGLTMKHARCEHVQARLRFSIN

CYP2C19 = CYP2C19 (Homo sapiens, UniProt P33261); assay: Inhibition of CYP2C19 using DBF as substrate at 10 uM; assay type: ADME; details: probe DBF
CYP2C9 = CYP2C9 (Homo sapiens, UniProt P11712); assay: Inhibition of CYP2C9 using 7MFC as substrate at 10 uM; assay type: ADME; details: probe 7MFC
CYP3A4 = CYP3A4 (Homo sapiens, UniProt P08684); assay: Inhibition of CYP3A4 using BFC as substrate at 10 uM; assay type: ADME; details: probe BFC
Hepatocyte [7] = assay: Drug metabolism in human hepatocytes assessed as (S)-2-(4-(trifluoromethylsulfonyloxy)phenyl)propanoic acid level at 10 uM after 120 mins; assay type: ADME, cell-based; details: 2 h
Hepatocyte [8] = assay: Drug metabolism in human hepatocytes assessed as (S)-2-(4-(trifluoromethylsulfonyloxy)phenyl)propanoic acid level at 10 uM after 60 mins; assay type: ADME, cell-based; details: 1 h
Hepatocyte [9] = assay: Metabolic stability in rat hepatocytes assessed as compound remaining at 10 uM after 15 mins; assay type: ADME, cell-based; details: 0.25 h
Hepatocyte [10] = assay: Drug metabolism in human hepatocytes assessed as (S)-2-(4-(trifluoromethylsulfonyloxy)phenyl)propanoic acid level at 10 uM after 30 mins; assay type: ADME, cell-based; details: 0.5 h
Hepatocyte [11] = assay: Metabolic stability in rat hepatocytes assessed as compound remaining at 10 uM after 30 mins; assay type: ADME, cell-based; details: 0.5 h
Hepatocyte [12] = assay: Metabolic stability in human hepatocytes assessed as compound remaining at 10 uM after 120 mins; assay type: ADME, cell-based; details: 2 h
Hepatocyte [13] = assay: Metabolic stability in human hepatocytes assessed as compound remaining at 10 uM after 15 mins; assay type: ADME, cell-based; details: 0.25 h
Hepatocyte [14] = assay: Drug metabolism in rat hepatocytes assessed as (S)-2-(4-(trifluoromethylsulfonyloxy)phenyl)propanoic acid level at 10 uM after 120 mins; assay type: ADME, cell-based; details: 2 h
Hepatocyte [15] = assay: Drug metabolism in rat hepatocytes assessed as (S)-2-(4-(trifluoromethylsulfonyloxy)phenyl)propanoic acid level at 10 uM after 60 mins; assay type: ADME, cell-based; details: 1 h
Hepatocyte [16] = assay: Drug metabolism in human hepatocytes assessed as (S)-2-(4-(trifluoromethylsulfonyloxy)phenyl)propanoic acid level at 10 uM after 15 mins; assay type: ADME, cell-based; details: 0.25 h
Hepatocyte [17] = assay: Metabolic stability in human hepatocytes assessed as compound remaining at 10 uM after 60 mins; assay type: ADME, cell-based; details: 1 h
[18] = Chemical stability of the compound assessed as compound remaining at pH 3.5 after 2 hrs; assay type: physicochemical; details: buffer, read-out: Stability
[19] = Chemical stability of the compound assessed as compound remaining at pH 9 after 2 hrs; assay type: physicochemical; details: buffer, read-out: Stability
Hepatocyte [20] = assay: Metabolic stability in rat hepatocytes assessed as compound remaining at 10 uM after 90 mins; assay type: ADME, cell-based; details: 1.5 h
Hepatocyte [21] = assay: Metabolic stability in human hepatocytes assessed as compound remaining at 10 uM after 30 mins; assay type: ADME, cell-based; details: 0.5 h
Hepatocyte [22] = assay: Drug metabolism in human hepatocytes assessed as (S)-2-(4-(trifluoromethylsulfonyloxy)phenyl)propanoic acid level at 10 uM after 90 mins; assay type: ADME, cell-based; details: 1.5 h
Hepatocyte [23] = assay: Drug metabolism in rat hepatocytes assessed as (S)-2-(4-(trifluoromethylsulfonyloxy)phenyl)propanoic acid level at 10 uM after 90 mins; assay type: ADME, cell-based; details: 1.5 h
Hepatocyte [24] = assay: Drug metabolism in rat hepatocytes assessed as (S)-2-(4-(trifluoromethylsulfonyloxy)phenyl)propanoic acid level at 10 uM after 15 mins; assay type: ADME, cell-based; details: 0.25 h
Hepatocyte [25] = assay: Drug metabolism in rat hepatocytes assessed as (S)-2-(4-(trifluoromethylsulfonyloxy)phenyl)propanoic acid level at 10 uM after 30 mins; assay type: ADME, cell-based; details: 0.5 h
Hepatocyte [26] = assay: Metabolic stability in human hepatocytes assessed as compound remaining at 10 uM after 90 mins; assay type: ADME, cell-based; details: 1.5 h
[27] = Dissociation constant, pKa of the compound; assay type: physicochemical
Hepatocyte [28] = assay: Metabolic stability in rat hepatocytes assessed as compound remaining at 10 uM after 60 mins; assay type: ADME, cell-based; details: 1 h
Hepatocyte [29] = assay: Metabolic stability in rat hepatocytes assessed as compound remaining at 10 uM after 120 mins; assay type: ADME, cell-based; details: 2 h
[30] = Elimination half life in Sprague-Dawley rat at 14 mg/kg, iv; assay type: ADME, organism-based; set-up: dose 14 mg/kg, route intravenous; details: in vivo, read-out: beta t1/2 (converted)

CYP2C9, sequence (P11712 whole entry): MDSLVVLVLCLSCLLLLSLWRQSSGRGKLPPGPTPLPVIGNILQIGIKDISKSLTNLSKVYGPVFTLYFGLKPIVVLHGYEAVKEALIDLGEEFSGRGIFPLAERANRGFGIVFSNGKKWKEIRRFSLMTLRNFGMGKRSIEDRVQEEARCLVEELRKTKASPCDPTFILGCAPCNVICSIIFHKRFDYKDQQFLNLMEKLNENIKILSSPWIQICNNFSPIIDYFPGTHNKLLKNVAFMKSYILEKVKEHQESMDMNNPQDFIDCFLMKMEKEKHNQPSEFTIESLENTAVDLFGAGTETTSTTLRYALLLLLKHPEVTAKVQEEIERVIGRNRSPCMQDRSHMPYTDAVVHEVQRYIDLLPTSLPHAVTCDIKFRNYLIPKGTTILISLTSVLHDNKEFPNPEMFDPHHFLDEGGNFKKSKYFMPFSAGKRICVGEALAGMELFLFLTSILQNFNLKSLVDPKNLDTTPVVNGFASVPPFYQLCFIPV
CYP3A4, sequence (P08684 whole entry): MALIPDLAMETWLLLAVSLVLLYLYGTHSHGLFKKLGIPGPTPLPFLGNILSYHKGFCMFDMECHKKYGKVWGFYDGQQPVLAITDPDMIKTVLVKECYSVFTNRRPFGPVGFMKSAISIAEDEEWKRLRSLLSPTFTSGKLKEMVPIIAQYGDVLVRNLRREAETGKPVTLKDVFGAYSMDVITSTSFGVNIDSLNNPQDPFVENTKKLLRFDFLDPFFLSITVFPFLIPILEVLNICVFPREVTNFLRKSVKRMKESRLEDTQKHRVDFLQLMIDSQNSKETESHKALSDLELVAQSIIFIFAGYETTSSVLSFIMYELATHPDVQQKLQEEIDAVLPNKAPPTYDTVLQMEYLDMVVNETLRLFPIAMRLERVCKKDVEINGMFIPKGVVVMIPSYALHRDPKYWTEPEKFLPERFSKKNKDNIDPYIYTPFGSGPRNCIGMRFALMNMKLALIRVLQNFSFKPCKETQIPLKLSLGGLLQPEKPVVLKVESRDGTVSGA
CYP2D6, sequence (P10635 whole entry): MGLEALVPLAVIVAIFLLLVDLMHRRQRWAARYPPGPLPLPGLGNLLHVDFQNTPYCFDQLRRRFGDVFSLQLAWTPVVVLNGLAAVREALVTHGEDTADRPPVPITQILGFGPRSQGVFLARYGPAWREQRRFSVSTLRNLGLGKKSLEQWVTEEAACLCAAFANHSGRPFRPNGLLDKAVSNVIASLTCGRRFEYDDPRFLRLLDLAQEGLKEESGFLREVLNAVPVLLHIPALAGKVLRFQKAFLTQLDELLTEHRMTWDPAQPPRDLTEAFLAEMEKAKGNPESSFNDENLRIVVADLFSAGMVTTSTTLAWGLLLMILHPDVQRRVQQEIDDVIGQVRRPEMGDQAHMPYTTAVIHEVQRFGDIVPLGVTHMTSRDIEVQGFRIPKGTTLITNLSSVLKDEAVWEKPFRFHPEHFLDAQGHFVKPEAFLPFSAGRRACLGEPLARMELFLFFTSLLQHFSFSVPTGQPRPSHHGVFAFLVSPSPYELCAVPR
CYP2C19, sequence (P33261 whole entry): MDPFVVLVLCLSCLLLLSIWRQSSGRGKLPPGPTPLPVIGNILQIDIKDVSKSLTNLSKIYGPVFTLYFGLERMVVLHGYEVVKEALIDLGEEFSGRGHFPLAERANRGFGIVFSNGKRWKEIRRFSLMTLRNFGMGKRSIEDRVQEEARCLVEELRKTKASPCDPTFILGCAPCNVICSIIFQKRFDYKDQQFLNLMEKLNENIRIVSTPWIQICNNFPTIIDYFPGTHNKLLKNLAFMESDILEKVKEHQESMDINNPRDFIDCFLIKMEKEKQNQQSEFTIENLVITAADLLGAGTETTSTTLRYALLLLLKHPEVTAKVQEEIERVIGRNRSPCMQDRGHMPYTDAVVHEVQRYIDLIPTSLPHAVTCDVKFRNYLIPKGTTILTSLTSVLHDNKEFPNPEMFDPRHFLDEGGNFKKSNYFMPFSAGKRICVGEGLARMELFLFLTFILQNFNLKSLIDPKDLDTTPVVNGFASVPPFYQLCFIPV

SMILES: C[C@@H](C(=O)NO)c1ccc(OS(=O)(=O)C(F)(F)F)cc1
- inhibition [1]: 50%
- inhibition [2]: 49%
- remaining at 0.5 h, 1 µM [3]: 87%
- remaining at 1 h, 1 µM [4]: 85%
- half-life [5]: < 1 h
- remaining at 2 h [6]: > 98%

SMILES: C[C@@H](C(=O)Nc1nc(C(F)(F)F)co1)c1ccc(OS(=O)(=O)C(F)(F)F)cc1
- inhibition [1]: 60%
- inhibition [2]: 50%
- inhibition at 10 µM (CYP2D6): 38%
- inhibition at 10 µM (CYP1A2): < 5%
- inhibition at 10 µM (CYP2C19): 94%
- inhibition at 10 µM (CYP2C9): 87%
- inhibition at 10 µM (CYP3A4): 82%

SMILES: C[C@@H](C(=O)O)c1ccc(OS(=O)(=O)C(F)(F)F)cc1
- Drug metabolism (Hepatocyte [7]): 330 ng/mL
- Drug metabolism (Hepatocyte [8]): 240 ng/mL
- Stability (Hepatocyte [9]): 2839 ng/mL
- Drug metabolism (Hepatocyte [10]): 84 ng/mL
- inhibition [1]: 62%
- inhibition [2]: 63%
- Stability (Hepatocyte [11]): 2541 ng/mL
- Stability (Hepatocyte [12]): 2541 ng/mL
- Stability (Hepatocyte [13]): 2932 ng/mL
- Drug metabolism (Hepatocyte [14]): 870 ng/mL
- remaining at 1 h, 1 µM [4]: 100%
- Drug metabolism (Hepatocyte [15]): 449 ng/mL
- Drug metabolism (Hepatocyte [16]): 21 ng/mL
- Stability (Hepatocyte [17]): 2696 ng/mL
- remaining at 2 h [18]: > 99%
- remaining at 2 h [19]: 30%
- Stability (Hepatocyte [20]): 2167 ng/mL
- Stability (Hepatocyte [21]): 2844 ng/mL
- Drug metabolism (Hepatocyte [22]): 260 ng/mL
- inhibition at 10 µM (CYP2D6): < 5%
- inhibition at 10 µM (CYP1A2): < 5%
- inhibition at 10 µM (CYP2C19): < 5%
- Drug metabolism (Hepatocyte [23]): 664 ng/mL
- inhibition at 10 µM (CYP2C9): < 5%
- Drug metabolism (Hepatocyte [24]): 117 ng/mL
- Drug metabolism (Hepatocyte [25]): 210 ng/mL
- remaining at 2 h [6]: > 99%
- Stability (Hepatocyte [26]): 2620 ng/mL
- inhibition at 10 µM (CYP3A4): < 5%
- pKa [27]: 4
- Stability (Hepatocyte [28]): 2287 ng/mL
- Stability (Hepatocyte [29]): 1946 ng/mL

SMILES: CC(C)ONC(=O)[C@H](C)c1ccc(OS(=O)(=O)C(F)(F)F)cc1
- inhibition [1]: 49%
- inhibition [2]: 38%
- remaining at 0.5 h, 1 µM [3]: 75%
- remaining at 1 h, 1 µM [4]: 85%

SMILES: CC(C)Cc1ccc([C@@H](C)C(=O)NS(C)(=O)=O)cc1 [REPARIXIN]
- half-life [30]: 0.75 h
- inhibition [1]: 68%
- inhibition [2]: 22%

SMILES: CONC(=O)[C@H](C)c1ccc(OS(=O)(=O)C(F)(F)F)cc1
- inhibition [1]: 56%
- inhibition [2]: 46%
- remaining at 0.5 h, 1 µM [3]: 65%
- remaining at 1 h, 1 µM [4]: 90%
- half-life [5]: < 1 h
- remaining at 2 h [6]: > 98%

SMILES: C[C@@H](C(N)=O)c1ccc(OS(=O)(=O)C(F)(F)F)cc1
- inhibition [1]: 58%
- inhibition [2]: 56%
- remaining at 0.5 h, 1 µM [3]: 80%

SMILES: C[C@@H](C(=O)Nc1ccccn1)c1ccc(OS(=O)(=O)C(F)(F)F)cc1
- inhibition [1]: 43%
- inhibition [2]: 45%
- inhibition at 10 µM (CYP2D6): 21%
- inhibition at 10 µM (CYP1A2): < 5%
- inhibition at 10 µM (CYP2C19): 97%
- inhibition at 10 µM (CYP2C9): 37%
- inhibition at 10 µM (CYP3A4): 15%

SMILES: C[C@@H](C(=O)NOCC1CC1)c1ccc(OS(=O)(=O)C(F)(F)F)cc1
- inhibition [1]: 40%
- inhibition [2]: 35%

SMILES: C[C@@H](C(=O)N(C)O)c1ccc(OS(=O)(=O)C(F)(F)F)cc1
- inhibition [1]: 47%
- inhibition [2]: 49%
- remaining at 0.5 h, 1 µM [3]: 75%
- remaining at 1 h, 1 µM [4]: 96%
- half-life [5]: < 1 h
- remaining at 2 h [6]: > 98%
